Laboratory results reported in publication PMC10435442, “Developing multitarget coumarin based anti-breast cancer agents: synthesis and molecular modeling study” (Scientific Reports, 2023).
Values after ≈ are worked out from the molar mass of the structure shown. Values joined by “and” are separate entries in the source; they are usually repeats but may differ in a detail not shown here. Identical values can stand only once. Like-named read-outs stand apart in the source and are kept apart here.

Columns and labels:
[1] = tested on: MCF-7; test: MTT cytotoxicity assay, MCF-7; details: for IC50: Homo sapiens
[2] = tested on: MDA-MB-231; test: DNA flow cytometric cell cycle analysis, MDA-MB-231; format: cell-based, human; details: for Comment (cell cycle phase of growth arrest) / DNA content %G0-G1 / DNA content %Pre-G1 / DNA content %S: MDA; for %G0-G1 / %Pre-G1 / %S: MDA-MB-231, IC50 concentration; for cell cycle arrest at S phase / increase of apoptotic cells in pre-G1 phase: MDA-MB-231, compared to control
[3] = tested on: MCF-10A; test: MTT cytotoxicity assay, nonmalignant MCF-10A; details: read-out: MCF-10A IC50; MTT, nonmalignant MCF-10A;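 note: MTT assay with absorbance read at 570 nm after 48 h exposure of cells to serial compound concentrations at 37 °C, testing selectivity against nonmalignant versus cancer cells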
[4] = tested on: Bcl-2; test: Bcl-2 level (ELISA) in treated cells; format: cell-based, human; details: for Bcl-2 Conc: MDA-MB-231 cells; for Bcl-2 Conc. (Average) / Bcl-2 Conc. (single wells): Bcl-2 ELISA; for BCL2 FLD (fold vs control): cont.MDA = 1
[5] = tested on: MDA-MB-231; test: Annexin V-FITC/PI dual staining apoptosis assay, MDA-MB-231; format: cell-based, human; details: for Apoptosis Early / Apoptosis Late / Apoptosis Total / Necrosis: MDA; for % Apoptosis Early / % Apoptosis Late / % Apoptosis Total / % Necrosis: MDA-MB-231
[6] = tested on: Bax; test: Bax level (ELISA) in treated cells; format: cell-based, human; details: for Bax Conc: MDA-MB-231 cells
[7] = biological target: EGFR (Homo sapiens, UniProt P00533); test: In vitro EGFR enzyme inhibition assay (ELISA)
[8] = tested on: MDA-MB-231; test: MTT cytotoxicity assay, MDA-MB-231; details: for IC50: Homo sapiens; for % viability: MDA
[9] = in vitro; details: human, MCF-10A cells (nonmalignant breast)
[10] = tested on: Caspase-9; test: Caspase-9 level (ELISA) in treated cells; format: cell-based, human; details: for Caspase-9 Conc.: MDA-MB-231 cells
[11] = MCF7, read-out: cytotoxicity_IC50 mcf7
[12] = MDA-MB-231, read-out: MDA-MBA-231 IC50
[13] = MDA-MB-231, read-out: cytotoxicity_IC50 MDA
[14] = MDA cells (MDA-MB-231) treated with the compound, cont.MDA 10.83±0.046
[15] = MDA cells (MDA-MB-231), duplicate wells, control 10.83
[16] = MDA cells (MDA-MB-231), mean of 2 wells, control 10.83
[17] = MDA, ELISA backfit, duplicate wells
[18] = MDA cells (MDA-MB-231) treated with the compound, cont.MDA 2.611±0.19
[19] = MDA cells (MDA-MB-231), caspase9 ELISA, duplicate wells, control 4.084
[20] = MDA cells (MDA-MB-231), cont.MDA = 1

Chain of EGFR (P00533 25-1210): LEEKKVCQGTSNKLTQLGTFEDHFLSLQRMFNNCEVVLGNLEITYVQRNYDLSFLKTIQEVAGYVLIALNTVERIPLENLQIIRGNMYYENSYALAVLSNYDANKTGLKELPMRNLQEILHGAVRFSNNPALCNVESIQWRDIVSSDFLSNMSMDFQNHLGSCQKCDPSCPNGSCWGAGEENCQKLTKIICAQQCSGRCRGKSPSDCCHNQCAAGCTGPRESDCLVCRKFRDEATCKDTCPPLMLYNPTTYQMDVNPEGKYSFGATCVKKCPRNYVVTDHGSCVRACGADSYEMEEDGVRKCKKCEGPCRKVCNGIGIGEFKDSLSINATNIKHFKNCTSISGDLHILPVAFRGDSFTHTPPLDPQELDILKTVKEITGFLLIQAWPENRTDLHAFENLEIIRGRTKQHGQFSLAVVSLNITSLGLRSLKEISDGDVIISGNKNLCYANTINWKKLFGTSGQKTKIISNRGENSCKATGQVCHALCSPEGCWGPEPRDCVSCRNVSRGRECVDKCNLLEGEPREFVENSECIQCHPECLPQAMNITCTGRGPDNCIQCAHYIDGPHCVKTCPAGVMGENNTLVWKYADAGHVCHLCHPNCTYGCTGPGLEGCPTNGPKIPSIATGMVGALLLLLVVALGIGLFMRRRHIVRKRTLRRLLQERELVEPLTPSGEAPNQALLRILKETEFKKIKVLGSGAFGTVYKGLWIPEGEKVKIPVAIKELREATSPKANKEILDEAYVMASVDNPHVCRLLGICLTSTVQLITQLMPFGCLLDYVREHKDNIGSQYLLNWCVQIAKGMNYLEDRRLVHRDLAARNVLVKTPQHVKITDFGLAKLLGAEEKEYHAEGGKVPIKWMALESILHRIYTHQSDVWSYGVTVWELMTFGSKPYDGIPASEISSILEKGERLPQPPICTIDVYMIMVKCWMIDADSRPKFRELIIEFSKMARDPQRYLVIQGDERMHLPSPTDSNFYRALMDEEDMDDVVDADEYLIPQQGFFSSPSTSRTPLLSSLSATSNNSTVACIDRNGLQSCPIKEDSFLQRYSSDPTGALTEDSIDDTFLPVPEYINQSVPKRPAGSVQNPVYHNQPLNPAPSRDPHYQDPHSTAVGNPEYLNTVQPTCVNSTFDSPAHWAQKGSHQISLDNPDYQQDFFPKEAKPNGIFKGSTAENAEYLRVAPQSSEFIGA

O=C(COc1ccc2c(COC(=O)c3ccc(Cl)cc3)cc(=O)oc2c1)c1ccc(Cl)cc1 [Compound 10, {7-[2-(4-Chlorophenyl)-2-oxoethoxy]-2-oxo-2H-chromen-4-yl}methyl 4-chlorobenzoate]
IC50 ([1]; MCF7, read-out: MCF-7 IC50): 95800 ± 2810 nM | IC50 [1, 11]: 46.3 ± 2.81 µg/mL | % viability ([1]; MCF7, 0.4ug): 85.616% | % viability ([1]; MCF7, 1.6ug): 73.288% | % viability ([1]; MCF7, 6.3ug): 64.521% | % viability ([1]; MCF7, 25ug): 54.315% | % viability ([1]; MCF7, 100ug): 44.863% | Comment (cell cycle phase of growth arrest) [2]: cell growth arrest@ S | DNA content %G0-G1 [2]: 51.97% | DNA content %Pre-G1 [2]: 33.43% | DNA content %S [2]: 43.82% | %G0-G1 [2]: 51.97^ad ^AC % | %Pre-G1 [2]: 33.43^bdf ^AB % | %S [2]: 43.82^bc ^D % | cell cycle arrest at S phase [2]: 1.59 folds | increase of apoptotic cells in pre-G1 phase [2]: 16.22 folds | IC50 [3]: 76800 ± 1810 nM | Bcl-2 Conc [4]: 4.088±0.058^cf ng/ml | Apoptosis Early [5]: 9.61 | Apoptosis Late [5]: 17.83 | Apoptosis Total [5]: 33.43 | Necrosis [5]: 5.99 | % Apoptosis Early [5]: 9.61^df % | % Apoptosis Late [5]: 17.83^df % | % Apoptosis Total [5]: 33.43% and 33.43^df % | % Necrosis [5]: 5.99% | Bax Conc [6]: 0.249±0.0079^be ng/ml | IC50 ([7]; EGFR IC50, lab report 01-11-2021, 10 compounds): 86.9 nM | IC50 ([7]; EGFR inhibition IC50): 86 ± 6 nM | Percentage above Reference IC50 (potency relative to erlotinib) ([7]; reference Erlotinib): 97.67% and 97.674% | IC50 [8, 12]: 2300 ± 60 nM | IC50 [8, 13]: 1.09 ± 0.06 µg/mL | % viability ([8]; 0.4ug (log conc. -0.41)): 56.384% | % viability ([8]; 1.6ug (log conc. 0.19)): 47.375% | % viability ([8]; 6.25ug (log conc. 0.8)): 40.274% | % viability ([8]; 25ug (log conc. 1.4)): 30.609% | % viability ([8]; 100ug (log conc. 2)): 23.5084% | IC50 at 48 h [9]: 37.1 ± 1.81 µg/mL (≈ 76.8 µM) | viability at 48 h, 0.4 ug [9]: 82.6% | viability at 48 h, 1.6 ug [9]: 69.1% | viability at 48 h, 6.25 ug [9]: 61.1% | viability at 48 h, 25 ug [9]: 52.6% | viability at 48 h, 100 ug [9]: 44.4% | Caspase-9 Conc. [10]: 16.77±0.37^be ng/ml

COc1ccccc1C(=O)OCc1cc(=O)oc2cc(OCC(=O)c3ccc(Cl)cc3)ccc12 [Compound 12, {7-[2-(4-Chlorophenyl)-2-oxoethoxy]-2-oxo-2H-chromen-4-yl}methyl 2-methoxybenzoate]
IC50 ([1]; MCF7, read-out: MCF-7 IC50): 13200 ± 380 nM | IC50 [1, 11]: 6.33 ± 0.38 µg/mL | % viability ([1]; MCF7, 0.4ug): 65.22% | % viability ([1]; MCF7, 1.6ug): 57.537% | % viability ([1]; MCF7, 6.3ug): 50.147% | % viability ([1]; MCF7, 25ug): 44.457% | % viability ([1]; MCF7, 100ug): 33.0205% | Comment (cell cycle phase of growth arrest) [2]: cell growth arrest@ G1/S | DNA content %G0-G1 [2]: 63.58% | DNA content %Pre-G1 [2]: 46.28% | DNA content %S [2]: 29.97% | %G0-G1 [2]: 63.58^abc ^ADE % | %Pre-G1 [2]: 46.28^cdg ^ABC % | %S [2]: 29.97 ^BDF % | cell cycle arrest at S phase [2]: 1.08 folds | increase of apoptotic cells in pre-G1 phase [2]: 22.46 folds | IC50 [3]: 72100 ± 1680 nM | Bcl-2 Conc [4]: 2.934±0.154^be ng/ml | Apoptosis Early [5]: 16.75 | Apoptosis Late [5]: 23.02 | Apoptosis Total [5]: 46.28 | Necrosis [5]: 6.51 | % Apoptosis Early [5]: 16.75^beg % | % Apoptosis Late [5]: 23.02^eg % | % Apoptosis Total [5]: 46.28% and 46.28^be % | % Necrosis [5]: 6.51% | Bax Conc [6]: 0.36±0.0118^cef ng/ml | IC50 ([7]; EGFR IC50, lab report 01-09-2021, 04 compounds, reference Erlotinib): 177 nM | IC50 ([7]; EGFR inhibition IC50): 177 ± 1.8 nM | inhibition at 10 pg/mL ([7]; read-out: EGFR %inh): 32% | inhibition at 0.0001 µg/mL ([7]; read-out: EGFR %inh): 50% | inhibition at 0.001 µg/mL ([7]; read-out: EGFR %inh): 73% | inhibition at 0.01 µg/mL ([7]; read-out: EGFR %inh): 88% | Percentage above Reference IC50 (potency relative to erlotinib) ([7]; reference Erlotinib): 81.92% | IC50 [8, 12]: 3500 ± 90 nM | IC50 [8, 13]: 1.71 ± 0.09 µg/mL | % viability ([8]; 0.4ug (log conc. -0.41)): 56.517% | % viability ([8]; 1.6ug (log conc. 0.19)): 51.229% | % viability ([8]; 6.25ug (log conc. 0.8)): 44.231% | % viability ([8]; 25ug (log conc. 1.4)): 36.538% | % viability ([8]; 100ug (log conc. 2)): 26.8697% | IC50 at 48 h [9]: 34.5 ± 1.68 µg/mL (≈ 72 µM) | viability at 48 h, 0.4 ug [9]: 81.4% | viability at 48 h, 1.6 ug [9]: 75.8% | viability at 48 h, 6.25 ug [9]: 62.5% | viability at 48 h, 25 ug [9]: 55% | viability at 48 h, 100 ug [9]: 39.6% | Caspase-9 Conc. [10]: 19.16±0.41^df ng/ml

O=C(COc1ccc2c(COC(=O)c3ccccc3)cc(=O)oc2c1)c1ccc(Cl)cc1 [Compound S8]
BCL2 conc. ([4]; MCF7): 3.291 ± 0.36 ng/mL | BCL2 FLD ([4]; MCF7, fold vs cont.MCF7 = 1): 0.44 | Bcl-2 Conc. (Average) ([4]; MCF7 cells treated with the compound, mean of 3 wells, control 7.438): 3.291 ng/mL | Bcl-2 Conc. (single wells) ([4]; MCF7 cells treated with the compound, replicate wells, control 7.438): 3.693 ng/mL and 3.01 ng/mL and 3.172 ng/mL | Bax Conc. (Average) ([6]; MCF7, ELISA backfit, wells A2-C2): 164.5 pg/mL | BAX ([6]; MCF7, cell culture supernatant): 164.5 ± 5.58 pg/mL | BAX FLD ([6]; MCF7, fold vs cont.MCF7 = 1): 5.27 | Casp9 ([10]; MCF7 cells treated with the compound, cont.MCF7 4.528±0.61): 30.39 ± 2.56 ng/mL | Caspase 9 Conc. (Average) ([10]; MCF7 cells, caspase9 ELISA, mean of 3 wells, control 4.528): 30.39 ng/mL | Caspase 9 Conc. (single wells) ([10]; MCF7 cells, caspase9 ELISA, replicate wells, control 4.528): 27.43 ng/mL and 31.78 ng/mL and 31.97 ng/mL | Casp9 FLD (fold vs control) ([10]; MCF7 cells, cont.MCF7 = 1): 6.71

O=C(COc1ccc2c(COC(=O)c3ccc(Cl)cc3)cc(=O)oc2c1)c1ccc(Cl)cc1 [s10]
BCL2 conc. [4, 14]: 4.088 ± 0.058 ng/mL | Bcl-2 Conc. (single wells) [4, 15]: 4.046 ng/mL and 4.129 ng/mL | Bcl-2 Conc. (Average) [4, 16]: 4.088 ng/mL | BCL2 FLD (fold vs control) ([4]; MDA cells (MDA-MB-231)): 0.377 | Bax Conc. (Average) [6, 17]: 248.9 pg/mL | BAX ([6]; MDA, cell culture supernatant): 248.9 ± 7.88 pg/mL | BAX FLD ([6]; MDA, fold vs cont.MDA = 1): 3.6 | Casp9 [10, 18]: 16.77 ± 0.37 ng/mL | Caspase 9 Conc. (single wells) [10, 19]: 18.48 ng/mL and 17.62 ng/mL | Casp9 FLD (fold vs control) [10, 20]: 6.42

COc1ccccc1C(=O)OCc1cc(=O)oc2cc(OCC(=O)c3ccc(Cl)cc3)ccc12 [s12]
BCL2 conc. [4, 14]: 2.934 ± 0.154 ng/mL | Bcl-2 Conc. (single wells) [4, 15]: 2.826 ng/mL and 3.043 ng/mL | Bcl-2 Conc. (Average) [4, 16]: 2.934 ng/mL | BCL2 FLD (fold vs control) ([4]; MDA cells (MDA-MB-231)): 0.271 | Bax Conc. (Average) [6, 17]: 360.4 pg/mL | BAX ([6]; MDA, cell culture supernatant): 360.4 ± 11.8 pg/mL | BAX FLD ([6]; MDA, fold vs cont.MDA = 1): 5.22 | Casp9 [10, 18]: 19.16 ± 0.41 ng/mL | Caspase 9 Conc. (single wells) [10, 19]: 21.43 ng/mL and 21.56 ng/mL | Casp9 FLD (fold vs control) [10, 20]: 7.34
